Experimental data taken from patent publication US10696726B2, “Insulin-incretin conjugates” (INDIANA UNIVERSITY RESEARCH AND TECHNOLOGY CORPORATION, priority 2013, dated 2020).
Several values for one entry are separate records, joined by “and”; a condition that tells them apart may be missing. Equal values may be shown once. Blank lines part the entries; values can stand above or below the molecule they belong to.

What was measured:
insulin receptor [1] = biological target: T1, insulin receptor (Homo sapiens, UniProt P06213); test: Insulin receptor binding assay (competition, scintillation proximity); conditions: for Ratio: Table 3, IGF-1 receptor IC50 over insulin receptor IC50
glucagon receptor = biological target: T2, glucagon receptor (Homo sapiens, UniProt P47871); test: Glucagon functional assay, cAMP synthesis (luciferase reporter, HEK293 cells); type: cell-based; conditions: FIG. 12
T2 construct: expressed in transfected cells; host or cells: HEK293

insulin receptor [2] = biological target: T1, insulin receptor; test: Insulin receptor phosphorylation assay in receptor transfected HEK293 cells; type: cell-based; design: expressed in transfected cells; host or cells: HEK293; conditions: FIGS. 10 and 11
human IGF-1 receptor = human IGF-1 receptor (Homo sapiens, UniProt P08069); test: IGF-1 receptor binding assay (competition, scintillation proximity); conditions: Table 3, relative to IGF-1 in the same test
human IGF-1 receptor, sequence (P08069 31-736 limits assumed): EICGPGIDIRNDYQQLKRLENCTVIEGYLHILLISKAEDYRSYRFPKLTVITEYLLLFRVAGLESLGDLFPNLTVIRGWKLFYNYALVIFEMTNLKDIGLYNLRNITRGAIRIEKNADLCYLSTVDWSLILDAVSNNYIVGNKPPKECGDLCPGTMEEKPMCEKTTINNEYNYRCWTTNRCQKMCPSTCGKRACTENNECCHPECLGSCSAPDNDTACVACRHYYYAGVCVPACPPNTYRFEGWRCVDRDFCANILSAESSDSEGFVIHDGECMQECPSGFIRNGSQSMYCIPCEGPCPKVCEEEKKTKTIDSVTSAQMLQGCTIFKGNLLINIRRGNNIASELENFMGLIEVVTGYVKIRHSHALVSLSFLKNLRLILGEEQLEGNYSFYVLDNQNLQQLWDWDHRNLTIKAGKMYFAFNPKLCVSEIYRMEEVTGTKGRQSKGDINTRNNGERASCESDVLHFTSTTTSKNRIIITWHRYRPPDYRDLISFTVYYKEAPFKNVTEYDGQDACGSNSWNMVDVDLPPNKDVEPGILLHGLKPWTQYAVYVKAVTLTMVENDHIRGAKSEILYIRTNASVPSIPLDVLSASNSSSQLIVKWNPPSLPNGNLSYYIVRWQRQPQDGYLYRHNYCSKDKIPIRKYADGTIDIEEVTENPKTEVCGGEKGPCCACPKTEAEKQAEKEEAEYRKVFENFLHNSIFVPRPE
human IGF-1 receptor, sequence (P08069 741-1367 partner limits assumed): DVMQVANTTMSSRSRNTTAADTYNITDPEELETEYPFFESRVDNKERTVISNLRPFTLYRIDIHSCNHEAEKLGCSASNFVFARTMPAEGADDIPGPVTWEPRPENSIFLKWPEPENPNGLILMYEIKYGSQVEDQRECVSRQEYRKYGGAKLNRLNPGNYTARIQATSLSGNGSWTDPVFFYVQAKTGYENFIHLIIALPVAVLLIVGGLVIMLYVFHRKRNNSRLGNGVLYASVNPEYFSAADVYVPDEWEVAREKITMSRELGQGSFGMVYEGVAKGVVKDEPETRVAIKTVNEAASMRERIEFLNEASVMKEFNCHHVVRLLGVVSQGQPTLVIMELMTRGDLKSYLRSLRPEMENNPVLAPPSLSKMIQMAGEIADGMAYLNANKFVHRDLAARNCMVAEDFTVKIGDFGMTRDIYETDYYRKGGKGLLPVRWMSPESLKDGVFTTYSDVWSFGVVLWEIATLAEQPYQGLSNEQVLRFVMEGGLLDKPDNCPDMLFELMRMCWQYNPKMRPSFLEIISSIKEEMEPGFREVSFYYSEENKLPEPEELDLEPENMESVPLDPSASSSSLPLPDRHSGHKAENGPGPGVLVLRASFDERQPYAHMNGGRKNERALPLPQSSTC

Ratio (insulin receptor [1]): 82.6
Molecule: CC[C@H](C)[C@H](NC(=O)CN)C(=O)N[C@H](C(=O)N[C@@H](CC(=O)O)C(=O)N[C@@H](CCC(=O)O)C(=O)N[C@H]1CSSC[C@@H]2NC(=O)[C@H](CO)NC(=O)[C@H](CCCNC(=N)N)NC(=O)[C@H](Cc3ccccc3)NC(=O)[C@H](CSSC[C@H](NC(=O)[C@H](CC(C)C)NC(=O)[C@@H](NC(=O)[C@H](CCC(=O)O)NC(=O)[C@@H]3CCCN3C(=O)CN)[C@@H](C)O)C(=O)NCC(=O)N[C@@H](CO)C(=O)N[C@@H](Cc3c[nH]cn3)C(=O)N[C@@H](CC(C)C)C(=O)N[C@@H](C(C)C)C(=O)N[C@@H](CCC(=O)O)C(=O)N[C@@H](C)C(=O)N[C@@H](CC(C)C)C(=O)N[C@@H](Cc3ccc(O)cc3)C(=O)N[C@@H](CC(C)C)C(=O)N[C@@H](C(C)C)C(=O)N[C@H](C(=O)NCC(=O)N[C@@H](CC(=O)O)C(=O)N[C@@H](CCCNC(=N)N)C(=O)NCC(=O)N[C@@H](Cc3ccccc3)C(=O)N[C@@H](Cc3ccc(O)cc3)C(=O)N[C@@H](Cc3ccccc3)C(=O)N[C@@H](CC(N)=O)C(=O)N[C@@H](CCCCN)C(=O)N3CCC[C@H]3C(=O)N[C@H](C(N)=O)[C@@H](C)O)CSSC[C@@H](C(=O)N[C@@H](C)C(N)=O)NC(=O)[C@H](Cc3ccc(O)cc3)NC(=O)[C@H](CCSC)NC(=O)[C@H](CCC(=O)O)NC(=O)[C@H](CC(C)C)NC(=O)[C@H](CCCNC(=N)N)NC(=O)[C@H](CCCNC(=N)N)NC(=O)[C@H](CC(C)C)NC(=O)[C@H](CC(=O)O)NC2=O)NC1=O)C(C)C

in vitro glucagon receptor activity (EC50 values, in words) (glucagon receptor): poor activity at the glucagon receptor | in vitro insulin receptor activity (EC50 values, in words) (insulin receptor [2]): poor activity at the insulin receptor
Molecule: GLP-1: native GLP-1: GLP-1(7-36) amide SEQ ID NO: 703 or GLP-1(7-37) acid SEQ ID NO: 704 [reference compound]

IGF-1 Receptor % IGF-1 (in test) (human IGF-1 receptor): 0.9% | Ratio (insulin receptor [1]): 22.6 | Insulin Receptor % insulin (in test) (insulin receptor [1]; Table 3, relative to insulin in the same test): 14.0% and 11.3% and 20.1% | Insulin Receptor % native insulin activity (0.6 nM) (insulin receptor [1]; Table 3, relative to native insulin taken as 0.6 nM): 21.7% and 22.5% and 24.2%
Molecule: CC[C@H](C)[C@H](NC(=O)CN)C(=O)N[C@H](C(=O)N[C@@H](CC(=O)O)C(=O)N[C@@H](CCC(=O)O)C(=O)N[C@H]1CSSC[C@@H]2NC(=O)[C@H](CO)NC(=O)[C@H](CCCNC(=N)N)NC(=O)[C@H](Cc3ccccc3)NC(=O)[C@H](CSSC[C@H](NC(=O)[C@H](CC(C)C)NC(=O)[C@H](Cc3c[nH]cn3)NC(=O)[C@H](CCC(N)=O)NC(=O)[C@H](CC(N)=O)NC(=O)[C@@H](NC(=O)[C@@H](N)Cc3ccccc3)C(C)C)C(=O)NCC(=O)N[C@@H](CO)C(=O)N[C@@H](Cc3c[nH]cn3)C(=O)N[C@@H](CC(C)C)C(=O)N[C@@H](C(C)C)C(=O)N[C@@H](CCC(=O)O)C(=O)N[C@@H](C)C(=O)N[C@@H](CC(C)C)C(=O)N[C@@H](Cc3ccc(O)cc3)C(=O)N[C@@H](CC(C)C)C(=O)N[C@@H](C(C)C)C(=O)N[C@H](C(=O)NCC(=O)N[C@@H](CC(=O)O)C(=O)N[C@@H](CCCNC(=N)N)C(=O)NCC(=O)N[C@@H](Cc3ccccc3)C(=O)N[C@@H](Cc3ccc(O)cc3)C(=O)N[C@@H](Cc3ccccc3)C(=O)N[C@@H](CC(N)=O)C(=O)N[C@@H](CCCCN)C(=O)N3CCC[C@H]3C(=O)N[C@H](C(N)=O)[C@@H](C)O)CSSC[C@@H](C(=O)N[C@@H](C)C(N)=O)NC(=O)[C@H](Cc3ccc(O)cc3)NC(=O)[C@H](CCSC)NC(=O)[C@H](CCC(=O)O)NC(=O)[C@H](CC(C)C)NC(=O)[C@H](CCCNC(=N)N)NC(=O)[C@H](CCCNC(=N)N)NC(=O)[C@H](CC(C)C)NC(=O)[C@H](CC(=O)O)NC2=O)NC1=O)C(C)C [IGF-1 A: In (1-17)-IGF-1 B (18-30)]

% of Insulin Activity (insulin receptor [1]; Table 2, relative to Insulin Standard): 262%
Molecule: CC[C@H](C)[C@H](NC(=O)CN)C(=O)N[C@H](C(=O)N[C@@H](CC(=O)O)C(=O)N[C@@H](CCC(=O)O)C(=O)N[C@H]1CSSC[C@@H]2NC(=O)[C@H](CO)NC(=O)[C@H](CCCNC(=N)N)NC(=O)[C@H](Cc3ccccc3)NC(=O)[C@H](CSSC[C@H](NC(=O)[C@H](CC(C)C)NC(=O)[C@@H](NC(=O)[C@H](CCC(=O)O)NC(=O)[C@@H]3CCCN3C(=O)CN)[C@@H](C)O)C(=O)NCC(=O)N[C@@H](C)C(=O)N[C@@H](CCC(=O)O)C(=O)N[C@@H](CC(C)C)C(=O)N[C@@H](C(C)C)C(=O)N[C@@H](CC(=O)O)C(=O)N[C@@H](C)C(=O)N[C@@H](CC(C)C)C(=O)N[C@@H](Cc3ccc(O)cc3)C(=O)N[C@@H](CC(C)C)C(=O)N[C@@H](C(C)C)C(=O)N[C@H](C(=O)NCC(=O)N[C@@H](CC(=O)O)C(=O)N[C@@H](CCCNC(=N)N)C(=O)NCC(=O)N[C@@H](Cc3ccccc3)C(=O)N[C@@H](Cc3ccc(O)cc3)C(=O)N[C@@H](Cc3ccccc3)C(=O)N[C@@H](CC(N)=O)C(=O)N[C@@H](CCCCN)C(=O)N3CCC[C@H]3C(=O)N[C@H](C(N)=O)[C@@H](C)O)CSSC[C@@H](C(=O)N[C@@H](C)C(N)=O)NC(=O)[C@H](Cc3ccc(O)cc3)NC(=O)[C@H](CCSC)NC(=O)[C@H](CCC(=O)O)NC(=O)[C@H](CC(C)C)NC(=O)[C@H](CCCNC(=N)N)NC(=O)[C@H](CCCNC(=N)N)NC(=O)[C@H](CC(C)C)NC(=O)[C@H](CC(=O)O)NC2=O)NC1=O)C(C)C [IGF1 (Y^B16L^B17)]
insulin receptor binding relative to native insulin (in words) (insulin receptor [1]; FIGS. 2-4, Tables 1 and 2): highly potent agonists of the insulin receptor
